According to patent publication US20050282840A1, “Methods of modulating neurotrophin-mediated activity” (PainCeptor Pharma Corporation, priority 2004, published 2005):
Where two headings read alike, the source gives them in different places.

Columns and labels:
[1] = biological target: T1, p75^NTR receptors (PC12 cells) (Rattus norvegicus, UniProt P07174); assay: Basic screening assay: binding of 125I-BDNF to PC12 cells; details: read-out: BDNF Activity % Maximal Binding
T1 construct: endogenous in cells; host or cells: PC12 cells
T1 sequence (P07174 30-425): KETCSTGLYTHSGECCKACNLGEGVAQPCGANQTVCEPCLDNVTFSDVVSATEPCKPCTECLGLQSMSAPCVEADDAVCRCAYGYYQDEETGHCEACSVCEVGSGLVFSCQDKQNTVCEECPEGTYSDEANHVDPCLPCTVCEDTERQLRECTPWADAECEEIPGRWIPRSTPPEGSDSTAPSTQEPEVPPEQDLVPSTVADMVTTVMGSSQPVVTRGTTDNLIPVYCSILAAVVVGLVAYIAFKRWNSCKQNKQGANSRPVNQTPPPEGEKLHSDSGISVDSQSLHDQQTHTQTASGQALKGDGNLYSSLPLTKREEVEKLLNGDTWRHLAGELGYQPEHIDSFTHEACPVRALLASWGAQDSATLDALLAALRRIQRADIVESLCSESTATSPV
T1 sequence (P23560 129-247 partner): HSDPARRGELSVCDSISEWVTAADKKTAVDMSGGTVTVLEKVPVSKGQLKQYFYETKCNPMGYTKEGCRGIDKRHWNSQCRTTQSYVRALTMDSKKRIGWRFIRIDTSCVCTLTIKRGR
Outline: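 4×10^6 PC12 cells incubated 2 h at 4° C, rotating, with 0.5 nM ^125I-BDNF (final) and compound at 50 μM, in duplicate or more. Bound ligand separated through 10% glycerol by centrifugation and counted by gamma counter; specific binding is Bmax minus NSB; inhibitors followed up for EC50.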

[2] = system: p75^NTR receptors (PC12 cells); assay: Basic screening assay: binding of 125I-NGF to PC12 cells; details: test compound 50 μM, 0.5 nM 125I-NGF, PC12 cells, 2 h at 4° C., specific binding as percent of control
Outline: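 Inhibition of 0.5 nM 125I-NGF binding to p75NTR on PC12 cells was measured with compounds at 50 μM during 2 h rotation at 4° C. Cell-bound radioactivity from glycerol-cushion centrifugation was gamma-counted, giving NSB-corrected binding as % of control specific binding.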

[3] = Table 4, test compound 50 μM, 0.5 nM 125I-BDNF, PC12 cells, 2 h at 4° C., specific binding as percent of control
[4] = Table 2, test compound 50 μM, 0.5 nM 125I-BDNF, PC12 cells, 2 h at 4° C., specific binding as percent of control
[5] = Table 1, test compound 50 μM, 0.5 nM 125I-BDNF, PC12 cells, 2 h at 4° C., specific binding as percent of control

Structure (SMILES): N=C1NC(=O)C(=Cc2ccc(-c3ccc([N+](=O)[O-])cc3Br)o2)S1 [Compound 103, 5-[5-(2-Bromo-4-nitrophenyl)furan-2-ylmethylene]-2-imino-thiazolidin-4-one]
- activity at 50 µM [1, 3]: > 50%
- NGF Activity % Maximal Binding ([2]; Table 4): * (50 < *)

Structure (SMILES): CCN1C(=O)S/C(=C/c2ccc(-c3ccc(C(=O)O)cc3)o2)C1=O [Compound 73, 4-[5-(3-Ethyl-2,4-dioxo-thiazolidin-5-ylidenemethyl)furan-2-yl]benzoic acid]
- activity at 50 µM [1, 4]: 0 to 10%
- NGF Activity % Maximal Binding ([2]; Table 2): X (40 < X < 50)

Structure (SMILES): COc1cc([N+](=O)[O-])ccc1-c1ccc(/C=C2/NC(=O)N(Cc3ccccc3F)C2=O)o1 [Compound 133, 3-(2-Fluorobenzyl)-5-[5-(2-methoxy-4-nitrophenyl)furan-2-ylmethylene]-imidazolidine-2,4-dione]
- activity at 50 µM [1, 3]: > 50%
- NGF Activity % Maximal Binding ([2]; Table 4): * (50 < *)

Structure (SMILES): CN1C(=O)NC(=O)C(=Cc2ccc(-c3ccc([N+](=O)[O-])cc3)o2)C1=O [Compound 39, 1-Methyl-5-[5-(4-nitrophenyl)furan-2-ylmethylene]-pyrimidine-2,4,6-trione]
- activity at 50 µM [1]: 20 to 30%
- NGF Activity % Maximal Binding ([2]; Table 1): * (50 < *)

Structure (SMILES): Cc1cc([N+](=O)[O-])c(C)cc1-c1ccc(C=C2C(=O)NC(=O)NC2=O)o1 [Compound 18, 5-[5-(2,5-Dimethyl-4-nitrophenyl)furan-2-ylmethylene]-pyrimidine-2,4,6-trione]
- activity at 50 µM [1]: 0 to 10%
- NGF Activity % Maximal Binding ([2]; Table 1): * (50 < *)

Structure (SMILES): CCCCOC(=O)c1ccc(-c2ccc(/C=C3/SC(=S)N(CC(=O)O)C3=O)o2)cc1 [Compound 12, 4-[5-(3-Carboxymethyl-4-oxo-2-thioxo-thiazolidin-5-ylidenemethyl)furan-2-yl]benzoic acid butyl ester]
- activity at 50 µM [1, 5]: 0 to 10%
- NGF Activity % Maximal Binding ([2]; Table 1): * (50 < *)

Structure (SMILES): COc1cc([N+](=O)[O-])ccc1-c1ccc(C=C2C(=O)ON=C2c2ccccc2)o1 [Compound 56, 4-[5-(2-Methoxy-4-nitrophenyl)furan-2-ylmethylene]-3-phenyl-4H-isoxazol-5-one]
- activity at 50 µM [1, 5]: 40 to 50%
- NGF Activity % Maximal Binding ([2]; Table 1): * (50 < *)

Structure (SMILES): Cc1cc([N+](=O)[O-])ccc1-c1ccc(C=C2SC(=S)NC2=O)o1 [Compound 7, 5-[5-(2-Methyl-4-nitrophenyl)furan-2-ylmethylene]-2-thioxo-thiazolidin-4-one]
- activity at 50 µM [1, 5]: 0 to 10%
- NGF Activity % Maximal Binding ([2]; Table 1): * (50 < *)

Structure (SMILES): CCOC(=O)c1ccc(-c2ccc(C=C3C(=O)NC(=S)NC3=O)o2)cc1 [Compound 99, 4-[5-(4,6-Dioxo-2-thioxo-tetrahydro-pyrimidin-5-ylidenemethyl)furan-2-yl]benzoic acid ethyl ester]
- activity at 50 µM [1]: > 50%
- NGF Activity % Maximal Binding ([2]; Table 4): * (50 < *)

Structure (SMILES): O=C(O)CCCN1C(=O)C(=Cc2ccc(-c3cccc([N+](=O)[O-])c3)o2)SC1=S [Compound 84, 4-{5-[5-(3-Nitrophenyl)furan-2-ylmethylene]-4-oxo-2-thioxo-thiazolidin-3-yl}-butyric acid]
- activity at 50 µM [1, 4]: 40 to 50%
- NGF Activity % Maximal Binding ([2]; Table 2): XXXXX (0 < XXXXX < 10)

Structure (SMILES): CCOC(=O)c1ccc(-c2ccc(/C=C3/C(=O)NN(c4cccc(C)c4)C3=O)o2)cc1 [Compound 63, 4-[5-(3,5-Dioxo-1-m-tolyl-pyrazolidin-4-ylidenemethyl)furan-2-yl]benzoic acid ethyl ester]
- activity at 50 µM [1, 5]: 40 to 50%
- NGF Activity % Maximal Binding ([2]; Table 1): * (50 < *)

Structure (SMILES): O=C1NC(=S)N/C1=C/c1ccc(-c2ccc([N+](=O)[O-])cc2Cl)o1 [Compound 47, 5-[5-(2-Chloro-4-nitrophenyl)furan-2-ylmethylene]-2-thioxo-imidazolidin-4-one]
- activity at 50 µM [1, 5]: 30 to 40%
- NGF Activity % Maximal Binding ([2]; Table 1): * (50 < *)

Structure (SMILES): O=C1NC(=S)NC(=O)C1=Cc1ccc(-c2ccc([N+](=O)[O-])cc2Br)o1 [Compound 1, 5-[5-(2-Bromo-4-nitrophenyl)furan-2-ylmethylene]-2-thioxo-dihydro-pyrimidine-4,6-dione]
- activity at 50 µM [1]: 0 to 10%
- NGF Activity % Maximal Binding ([2]; Table 1): * (50 < *)

Structure (SMILES): CN1C(=O)NC(=O)C(=Cc2ccc(-c3ccc(C(=O)O)cc3)o2)C1=O [Compound 17, 4-[5-(1-Methyl-2,4,6-trioxo-tetrahydro-pyrimidin-5-ylidenemethyl)furan-2-yl]benzoic acid]
- activity at 50 µM [1]: 0 to 10%
- NGF Activity % Maximal Binding ([2]; Table 1): * (50 < *)

Structure (SMILES): Cc1ccc(-c2ccc(C=C3C(=O)NC(=S)NC3=O)o2)cc1[N+](=O)[O-] [Compound 106, 5-[5-(4-Methyl-3-nitrophenyl)furan-2-ylmethylene]-2-thioxo-dihydro-pyrimidine-4,6-dione]
- activity at 50 µM [1]: > 50%
- NGF Activity % Maximal Binding ([2]; Table 4): * (50 < *)

Structure (SMILES): COC(=O)CN1C(=S)N(C)C(=O)/C1=C/c1ccc(-c2ccc([N+](=O)[O-])cc2)o1 [Compound 141, {3-Methyl-5-[5-(4-nitrophenyl)furan-2-ylmethylene]-4-oxo-2-thioxo-imidazolidin-1-yl}-acetic acid methyl ester]
- activity at 50 µM [1, 3]: > 50%
- NGF Activity % Maximal Binding ([2]; Table 4): * (50 < *)

Structure (SMILES): COc1ccc(-c2ccc(/C=C3\SC(=S)NC3=O)o2)cc1[N+](=O)[O-] [Compound 20, 5-[5-(4-Methoxy-3-nitrophenyl)furan-2-ylmethylene]-2-thioxo-thiazolidin-4-one]
- activity at 50 µM [1, 5]: 0 to 10%
- NGF Activity % Maximal Binding ([2]; Table 1): * (50 < *)

Structure (SMILES): O=C1NC(=S)N(c2ccc(F)cc2)C(=O)/C1=C\c1ccc(-c2cccc([N+](=O)[O-])c2)o1 [Compound 70, 1-(4-Fluorophenyl)-5-[5-(3-nitrophenyl)furan-2-ylmethylene]-2-thioxo-dihydro-pyrimidine-4,6-dione]
- activity at 50 µM [1]: 0 to 10%
- NGF Activity % Maximal Binding ([2]; Table 2): X (40 < X < 50)

Structure (SMILES): O=C(O)c1ccc(-c2ccc(/C=C3/NC(=O)N(c4cccc(Cl)c4)C3=O)o2)cc1Cl [Compound 36, 2-Chloro-4-{5-[1-(3-chlorophenyl)-2,5-dioxo-imidazolidin-4-ylidenemethyl]furan-2-yl}benzoic acid]
- activity at 50 µM [1, 5]: 10 to 20%
- NGF Activity % Maximal Binding ([2]; Table 1): * (50 < *)

Structure (SMILES): Cc1ccc([N+](=O)[O-])cc1-c1ccc(/C=C2/SC(=O)NC2=O)o1 [Compound 88, 5-[5-(2-Methyl-5-nitrophenyl)furan-2-ylmethylene]-thiazolidine-2,4-dione]
- activity at 50 µM [1, 3]: > 50%
- NGF Activity % Maximal Binding ([2]; Table 4): * (50 < *)

Structure (SMILES): Cc1ccc(N2NC(=O)/C(=C/c3ccc(-c4ccc(S(N)(=O)=O)cc4)o3)C2=O)cc1 [Compound 102, 4-[5-(3,5-Dioxo-1-p-tolyl-pyrazolidin-4-ylidenemethyl)furan-2-yl]benzenesulfonamide]
- activity at 50 µM [1, 3]: > 50%
- NGF Activity % Maximal Binding ([2]; Table 4): * (50 < *)

Structure (SMILES): COC(=O)c1ccc(-c2ccc(/C=C3/NC(=O)N(c4cccc(Cl)c4)C3=O)o2)cc1 [Compound 128, 4-{5-[1-(3-Chlorophenyl)-2,5-dioxo-imidazolidin-4-ylidenemethyl]furan-2-yl}benzoic acid methyl ester]
- activity at 50 µM [1, 3]: > 50%
- NGF Activity % Maximal Binding ([2]; Table 4): * (50 < *)

Structure (SMILES): Cc1c(-c2ccc(C=C3C(=O)NC(=O)NC3=O)o2)ccc([N+](=O)[O-])c1C [Compound 81, 5-[5-(2,3-Dimethyl-4-nitrophenyl)furan-2-ylmethylene]-pyrimidine-2,4,6-trione]
- activity at 50 µM [1]: 20 to 30%
- NGF Activity % Maximal Binding ([2]; Table 2): XX (30 < XX < 40)

Structure (SMILES): CCN1C(=O)S/C(=C/c2ccc(-c3ccc([N+](=O)[O-])cc3OC)o2)C1=O [Compound 58, 3-Ethyl-5-[5-(2-methoxy-4-nitrophenyl)furan-2-ylmethylene]-thiazolidine-2,4-dione]
- activity at 50 µM [1, 5]: 40 to 50%
- NGF Activity % Maximal Binding ([2]; Table 1): * (50 < *)

Structure (SMILES): COc1ccc(CN2C(=O)/C(=C\c3ccc(-c4ccc(S(N)(=O)=O)cc4)o3)SC2=S)cc1 [Compound 37, 4-{5-[3-(4-Methoxybenzyl)-4-oxo-2-thioxo-thiazolidin-5-ylidenemethyl]furan-2-yl}benzenesulfonamide]
- activity at 50 µM [1, 5]: 20 to 30%
- NGF Activity % Maximal Binding ([2]; Table 1): * (50 < *)

Structure (SMILES): CCOC(=O)CN1C(=O)S/C(=C\c2ccc(-c3ccc(Cl)c(C(=O)O)c3)o2)C1=O [Compound 115, 2-Chloro-5-[5-(3-ethoxycarbonylmethyl-2,4-dioxo-thiazolidin-5-ylidenemethyl)furan-2-yl]benzoic acid]
- activity at 50 µM [1, 3]: > 50%
- NGF Activity % Maximal Binding ([2]; Table 4): * (50 < *)
